Drawing on BindingDB's records for doi:10.1021/jm00078a018 (Merck Research Laboratories, 1994), this text covers IC50 for 25 molecules.

This assay can be described thus: Inhibition of binding of [125I]-CCK-8 to the cholecystokinin type B receptor.

In turn, `CCN(CC)C(=O)CN1C(=O)C(NC(=O)Nc2ccccc2Cl)N=C(c2ccccc2)c2ccccc21` (stereo not given) [2-{3-[3-(2-Chloro-phenyl)-ureido]-2-oxo-5-phenyl-2,3-dihydro-benzo[e][1,4]diazepin-1-yl}-N,N-diethyl-acetamide] gave an IC50 of 3.8 nM. In other words, the single-digit nanomolar range.
As to `CCN(CC)C(=O)CN1C(=O)C(NC(=O)Nc2ccc(Cl)cc2)N=C(c2ccccc2)c2ccccc21` (stereo not given) [2-{3-[3-(4-Chloro-phenyl)-ureido]-2-oxo-5-phenyl-2,3-dihydro-benzo[e][1,4]diazepin-1-yl}-N,N-diethyl-acetamide], the IC50 came to 0.6 nM.
`CCN(CC)C(=O)C(C)N1C(=O)C(NC(=O)Nc2ccc(Cl)cc2)N=C(c2ccccc2)c2ccccc21` (stereo not given) [2-{3-[3-(4-Chloro-phenyl)-ureido]-2-oxo-5-phenyl-2,3-dihydro-benzo[e][1,4]diazepin-1-yl}-N,N-diethyl-propionamide] returned an IC50 of 22 nM.
With `CCNC(=O)CN1C(=O)C(NC(=O)Nc2ccc(Cl)cc2)N=C(c2ccccc2)c2ccccc21` (stereo not given) [2-{3-[3-(4-Chloro-phenyl)-ureido]-2-oxo-5-phenyl-2,3-dihydro-benzo[e][1,4]diazepin-1-yl}-N-ethyl-acetamide], the IC50 was 11 nM.
Molecule `CN1C(=O)C(NC(=O)Nc2cccc(C(=O)O)c2)N=C(c2ccccc2)c2ccccc21` (stereo not given) [3-[3-(1-Methyl-2-oxo-5-phenyl-2,3-dihydro-1H-benzo[e][1,4]diazepin-3-yl)-ureido]-benzoic acid] had an IC50 of 9.7 nM.
Consider `COC(=O)c1cccc(NC(=O)N[C@@H]2N=C(c3ccccc3)c3ccccc3N(C)C2=O)c1` [3-[3-((R)-1-Methyl-2-oxo-5-phenyl-2,3-dihydro-1H-benzo[e][1,4]diazepin-3-yl)-ureido]-benzoic acid methyl ester], for which the IC50 was found to be 8 nM.
The result for `CCOC(=O)CCN1C(=O)C(NC(=O)Nc2cccc(OC)c2)N=C(c2ccccc2)c2ccccc21` (stereo not given) [3-{3-[3-(3-Methoxy-phenyl)-ureido]-2-oxo-5-phenyl-2,3-dihydro-benzo[e][1,4]diazepin-1-yl}-propionic acid ethyl ester] reads 1 nM.
The result for `COc1cccc(NC(=O)NC2N=C(c3ccccc3)c3ccccc3N(CCC(=O)O)C2=O)c1` (stereo not given) [3-{3-[3-(3-Methoxy-phenyl)-ureido]-2-oxo-5-phenyl-2,3-dihydro-benzo[e][1,4]diazepin-1-yl}-propionic acid] reads 250 nM; that for `CCOC(=O)CCN1C(=O)C(NC(=O)Nc2ccc(Cl)cc2)N=C(c2ccccc2)c2ccccc21` (stereo not given) [3-{3-[3-(4-Chloro-phenyl)-ureido]-2-oxo-5-phenyl-2,3-dihydro-benzo[e][1,4]diazepin-1-yl}-propionic acid ethyl ester], 5.9 nM.
For the molecule `CN1C(=O)C(NC(=O)Nc2ccc(C(=O)O)cc2)N=C(c2ccccc2)c2ccccc21` (stereo not given) [4-[3-(1-Methyl-2-oxo-5-phenyl-2,3-dihydro-1H-benzo[e][1,4]diazepin-3-yl)-ureido]-benzoic acid], the IC50 was over 100 nM.
With `CN1C(=O)C(NC(N)=O)N=C(c2ccccc2)c2ccccc21` (stereo not given) [(1-Methyl-2-oxo-5-phenyl-2,3-dihydro-1H-benzo[e][1,4]diazepin-3-yl)-urea], the IC50 is over 100000 nM.
Next, `COc1cccc(NC(=O)NC2N=C(c3ccccc3)c3ccccc3N(CC[N+](C)(C)C)C2=O)c1` (stereo not given) [(2-{3-[3-(3-Methoxy-phenyl)-ureido]-2-oxo-5-phenyl-2,3-dihydro-benzo[e][1,4]diazepin-1-yl}-ethyl)-trimethyl-ammonium; iodide]: 1100 nM; `CN1C(=O)C(NC(=O)Nc2ccc(Cl)cc2)N=C(c2ccccc2)c2ccccc21` [(R)-1-(4-Chloro-phenyl)-3-(1-methyl-2-oxo-5-phenyl-2,3-dihydro-1H-benzo[e][1,4]diazepin-3-yl)-urea]: 81 nM.
For the molecule `CCN(CC)CC(=O)OCCN1C(=O)C(NC(=O)Nc2cccc(C)c2)N=C(c2ccccc2)c2ccccc21` (stereo not given) [Diethylamino-acetic acid 2-[2-oxo-5-phenyl-3-(3-m-tolyl-ureido)-2,3-dihydro-benzo[e][1,4]diazepin-1-yl]-ethyl ester], the IC50 was 5.6 nM.
Turning to `CCN(CC)C(=O)CN1C(=O)C(NC(=O)Nc2cccc(OC)c2)N=C(c2ccccc2)c2ccccc21` (stereo not given) [N,N-Diethyl-2-{3-[3-(3-methoxy-phenyl)-ureido]-2-oxo-5-phenyl-2,3-dihydro-benzo[e][1,4]diazepin-1-yl}-acetamide], the IC50 was 0.22 nM.
In the case of `O=C(CN1C(=O)C(NC(=O)Nc2ccc(Cl)cc2)N=C(c2ccccc2)c2ccccc21)NCc1ccccc1` (stereo not given) [N-Benzyl-2-{3-[3-(4-chloro-phenyl)-ureido]-2-oxo-5-phenyl-2,3-dihydro-benzo[e][1,4]diazepin-1-yl}-acetamide], the IC50 is 102 nM.
With `Cc1cccc(NC(=O)NC2N=C(c3ccccc3)c3ccccc3N(CCOC(=O)CCC(=O)O)C2=O)c1` (stereo not given) [Succinic acid mono-{2-[2-oxo-5-phenyl-3-(3-m-tolyl-ureido)-2,3-dihydro-benzo[e][1,4]diazepin-1-yl]-ethyl} ester], the IC50 came out at 7.2 nM.
`Cc1cccc(NC(=O)NC2N=C(c3ccccc3)c3ccccc3N(CC(=O)O)C2=O)c1` (stereo not given) [[2-Oxo-5-phenyl-3-(3-m-tolyl-ureido)-2,3-dihydro-benzo[e][1,4]diazepin-1-yl]-acetic acid] had an IC50 of 380 nM.
With `CCOC(=O)CN1C(=O)C(NC(=O)c2ccccc2Cl)N=C(c2ccccc2F)c2ccccc21` (stereo not given) [[3-(2-Chloro-benzoylamino)-5-(2-fluoro-phenyl)-2-oxo-2,3-dihydro-benzo[e][1,4]diazepin-1-yl]-acetic acid ethyl ester], the IC50 is 3200 nM. This IC50 is about 8.4-fold higher than that of the molecule before.
On to `CCOC(=O)CN1C(=O)C(NC(=O)N[C@@H](C)c2ccccc2)N=C(c2ccccc2)c2ccccc21` (stereo not given in full) [{2-Oxo-5-phenyl-3-[3-(1-phenyl-ethyl)-ureido]-2,3-dihydro-benzo[e][1,4]diazepin-1-yl}-acetic acid ethyl ester], for which the IC50 is over 100 nM.
Turning to `CN1C(=O)C(NC(=O)Nc2cccc(CNC(=O)OC(C)(C)C)c2)N=C(c2ccccc2)c2ccccc21` (stereo not given) [{3-[3-(1-Methyl-2-oxo-5-phenyl-2,3-dihydro-1H-benzo[e][1,4]diazepin-3-yl)-ureido]-benzyl}-carbamic acid tert-butyl ester], the IC50 is 170 nM. That is a sub-micromolar value.
Take `COC(=O)Cc1cccc(NC(=O)NC2N=C(c3ccccc3)c3ccccc3N(C)C2=O)c1` (stereo not given) [{3-[3-(1-Methyl-2-oxo-5-phenyl-2,3-dihydro-1H-benzo[e][1,4]diazepin-3-yl)-ureido]-phenyl}-acetic acid methyl ester]: the IC50 worked out at 33 nM.
The molecule `CN1C(=O)C(NC(=O)Nc2cccc(CC(=O)O)c2)N=C(c2ccccc2)c2ccccc21` (stereo not given) [{3-[3-(1-Methyl-2-oxo-5-phenyl-2,3-dihydro-1H-benzo[e][1,4]diazepin-3-yl)-ureido]-phenyl}-acetic acid] came in with an IC50 of 4.9 nM.
`O=C(Nc1ccc(Cl)cc1)NC1N=C(c2ccccc2)c2ccccc2N(CC(=O)OCc2ccccc2)C1=O` (stereo not given) [{3-[3-(4-Chloro-phenyl)-ureido]-2-oxo-5-phenyl-2,3-dihydro-benzo[e][1,4]diazepin-1-yl}-acetic acid benzyl ester] gave an IC50 of 44 nM. Compared with the last molecule, the IC50 is about 9-fold higher.
Consider `O=C(O)CN1C(=O)C(NC(=O)Nc2ccc(Cl)cc2)N=C(c2ccccc2)c2ccccc21` (stereo not given) [{3-[3-(4-Chloro-phenyl)-ureido]-2-oxo-5-phenyl-2,3-dihydro-benzo[e][1,4]diazepin-1-yl}-acetic acid], for which the half-inhibitory concentration (IC50) turned out to be 72 nM.
